This is an account of results in PubChem BioAssay (NCI).

Among the test systems are 786-0 renal; COLO 205 colon; HT29 colon; LOX IMVI melanoma; M14 melanoma; NCI-H522 lung; RPMI-8226 leukemia; SNB-19 CNS; SW-620 colon; U251 CNS.
Common to all, as to assay: inhibition of tumour cell growth, NCI panel, 48 h

Structures are written as SMILES.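 How tested: cells in 96-well plates exposed to compound for 48 hours at five concentrations. Here, GI50 denotes the concentration required for 50% inhibition of growth. TGI is the concentration that stops growth completely.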

`c1ccc(C2OC3(CCC[C@H]4C[C@H]43)O[C@H]2c2ccccc2)cc1` (some centres undefined): the TGI with 786-0 renal is greater than 100000 nM; in the test on COLO 205 colon it was 91700 nM; with HT29 colon, greater than 100000 nM; with LOX IMVI melanoma, 56800 nM; in the test on M14 melanoma it was greater than 100000 nM; in the test on NCI-H522 lung, 67100 nM. Also, the TGI in the test with RPMI-8226 leukemia is 96900 nM; in the test with SNB-19 CNS, greater than 100000 nM; in the test with SW-620 colon, greater than 100000 nM; in the test with U251 CNS, greater than 100000 nM.

Turning to `COc1ccc(C/C(=C(\C)c2ccc(OCCN3CCCC3)cc2)c2ccc(OCCN3CCCC3)cc2)cc1`, the GI50 is 1630 nM in the test with 786-0 renal; 1720 nM with COLO 205 colon; 1580 nM in the test with HT29 colon; 1730 nM in the test on LOX IMVI melanoma; 1670 nM in the test on M14 melanoma; 1860 nM in the test on NCI-H522 lung. In addition, the GI50 was 1870 nM with RPMI-8226 leukemia, 2120 nM in the test on SNB-19 CNS, 1750 nM in the test on SW-620 colon and 1800 nM with U251 CNS. For the same compound, the TGI in the test with 786-0 renal turned out to be 3240 nM; with COLO 205 colon it was 3380 nM; with HT29 colon, 3070 nM; in the test on LOX IMVI melanoma, 3180 nM; with M14 melanoma it was 3500 nM; in the test on NCI-H522 lung, 3530 nM. In addition, the TGI with RPMI-8226 leukemia is 4300 nM; with SNB-19 CNS it was 4750 nM; with SW-620 colon it was 3650 nM; in the test with U251 CNS, 3320 nM.

In the case of `CCC(C)[C@H](NC(=O)Nc1cc(C(F)(F)F)cc(C(F)(F)F)c1)C(=O)N[C@@H](Cc1cn(C)cn1)C(=O)OC` (some centres undefined), the GI50 is 1190 nM in the test with 786-0 renal; 1400 nM with COLO 205 colon; 711 nM in the test with HT29 colon; 768 nM with LOX IMVI melanoma; 1110 nM with M14 melanoma; 584 nM in the test on NCI-H522 lung. Besides, the GI50 in the test with RPMI-8226 leukemia is 721 nM; in the test with SNB-19 CNS, 672 nM; in the test with SW-620 colon, 690 nM; with U251 CNS it was 1330 nM. Besides, the TGI in the test with 786-0 renal was 1880 nM; with COLO 205 colon it was 1890 nM; in the test on HT29 colon, 1400 nM; with LOX IMVI melanoma it was 1830 nM; in the test on M14 melanoma it was 1980 nM; in the test on NCI-H522 lung, 1150 nM. Besides, the TGI in the test with RPMI-8226 leukemia was 1860 nM; in the test on SNB-19 CNS, 1520 nM; in the test on SW-620 colon, 1530 nM; with U251 CNS it was 1800 nM.

As for `CCN(CC)CCCNc1cc(OC)cc2nc3cc(Cl)ccc3nc12`, the GI50 with 786-0 renal was 1180 nM; in the test on COLO 205 colon, 956 nM; with HT29 colon it was 399 nM; with LOX IMVI melanoma it was 913 nM; in the test on M14 melanoma, 1610 nM; in the test with NCI-H522 lung, 1340 nM. In addition, the GI50 in the test on RPMI-8226 leukemia was 2530 nM; in the test with SNB-19 CNS, 2770 nM; with SW-620 colon it was 779 nM; in the test with U251 CNS it was 1220 nM. Further, the TGI with 786-0 renal was found to be 3500 nM; in the test with COLO 205 colon, 2260 nM; in the test with HT29 colon, 1870 nM; with LOX IMVI melanoma, 2250 nM; in the test with M14 melanoma it was 3020 nM; in the test on NCI-H522 lung it was 3080 nM. Also, the TGI turned out to be 6250 nM in the test with RPMI-8226 leukemia, 11700 nM with SNB-19 CNS, 11200 nM with SW-620 colon and 3680 nM in the test with U251 CNS.

Take `CC1CC[P+](c2ccccc2)(c2ccccc2)c2c1ccc1ccccc21` (centres undefined): the GI50 with 786-0 renal is 11000 nM; with COLO 205 colon, 2020 nM; in the test on RPMI-8226 leukemia, 1630 nM; in the test with SW-620 colon, 5950 nM; in the test with U251 CNS, 2850 nM. Also, the TGI with 786-0 renal stood at 43400 nM; with HT29 colon, 13900 nM; in the test on LOX IMVI melanoma it was 7610 nM; with M14 melanoma it was 41900 nM; in the test on NCI-H522 lung, 9870 nM; in the test with RPMI-8226 leukemia, 11600 nM. The TGI is 97400 nM in the test with SNB-19 CNS, greater than 100000 nM with SW-620 colon and greater than 100000 nM in the test on U251 CNS.
